Experimental data reported in publication PMC8697972, “New Auranofin Analogs with Antibacterial Properties against Burkholderia Clinical Isolates” (Antibiotics, 2021).
Where two headings read alike, the source gives them in different places. Marks after values point to notes of the source that are not given here.

What was measured:
B. lata BCC6 = assay type: cell-based, Burkholderia lata; settings: B. lata BCC6
[1] = test system: B. mallei China 7 (NBL 7); assay type: cell-based, Burkholderia mallei
B. contaminans FFH-4004 = assay type: cell-based, Burkholderia contaminans; settings: B. contaminans FFH-4004
B. pseudomallei = assay type: cell-based, Burkholderia pseudomallei
[2] = test system: B. mallei Ivan (NCTC 10230); assay type: cell-based, Burkholderia mallei
B. contaminans MF16 = assay type: cell-based, Burkholderia contaminans; settings: B. contaminans MF16
members of the Bcc = assay: MIC, summary over Bcc panel; assay type: cell-based, Burkholderia cepacia complex; settings: text summary over Bcc panel (most of the MICs)
B. cenocepacia K56-2 [3] = assay type: cell-based, Burkholderia cenocepacia; settings: B. cenocepacia K56-2; CAMHB, 18 h, 37 °C
B. pseudomallei 1710b = assay type: cell-based, Burkholderia pseudomallei
B. multivorans ATCC17616 = assay type: cell-based, Burkholderia multivorans; settings: B. multivorans ATCC17616
B. dolosa CEP021 = assay type: cell-based, Burkholderia dolosa; settings: B. dolosa CEP021
[4] = test system: B. contaminans FFH-2050MA; assay type: cell-based, Burkholderia contaminans; settings: B. contaminans FFH-2050MA
B. ubonensis LMG 20358 = assay type: cell-based, Burkholderia ubonensis; settings: B. ubonensis LMG 20358
B. pseudomallei MSHR465a = assay type: cell-based, Burkholderia pseudomallei
B. cenocepacia 140485 = assay type: cell-based, Burkholderia cenocepacia; settings: B. cenocepacia 140485
[5] = test system: B. pseudomallei HBPUB10134a; assay type: cell-based, Burkholderia pseudomallei
[6] = test system: B. mallei China 5 (NBL 4); assay type: cell-based, Burkholderia mallei
Gram-negative bacteria = test system: Gram-negative bacteria; design: method as in PMID 25831516; settings: cited from earlier work
B. mallei = assay type: cell-based, Burkholderia mallei; settings: range over B. mallei strains
[7] = test system: Klebsiella pneumoniae 120310; assay: MBC (minimum bactericidal concentration)
[8] = test system: Achromobacter xylosoxidans ACH03; assay type: cell-based
Escherichia coli 120955 [9] = assay type: cell-based
C. elegans DH26 = settings: for Percent survival of C. elegans: 24 h
[10] = test system: Stenotrophomonas maltophilia DH57; assay type: cell-based
B. cenocepacia K56-2 [11] = assay: In vivo antibiotic activity in infected C. elegans; settings: C. elegans infected with B. cenocepacia K56-2, data not shown
[12] = test system: Burkholderia cenocepacia K56-2; assay: Time kill assays (exponential and stationary phase)
[13] = test system: Staphylococcus aureus 107094; assay: MBC (minimum bactericidal concentration)
[14] = test system: Achromobacter xylosoxidans ACH03; assay: MBC (minimum bactericidal concentration)
[15] = test system: Burkholderia cenocepacia K56-2; assay: MBC (minimum bactericidal concentration); assay type: cell-based; settings: MBC determined from exponential time kill curve
[16] = test system: Escherichia vulneris CEP511; assay: MBC (minimum bactericidal concentration)
[17] = test system: Acinetobacter baumannii ATCC 17978; assay: MBC (minimum bactericidal concentration)
[18] = test system: Staphylococcus aureus ATCC 27700; assay type: cell-based
[19] = test system: Galleria mellonella larvae; assay: Galleria toxicity
B. cenocepacia K56-2 [20] = assay: In vivo antibiotic activity in infected G. mellonella; settings: G. mellonella infected with B. cenocepacia K56-2, data not shown
[21] = test system: Acinetobacter baumannii ATCC 17978; assay type: cell-based
B. cenocepacia K56-2 [22] = assay: Persister frequency assay; settings: 24 h
[23] = test system: Staphylococcus aureus 107094; assay type: cell-based
Escherichia coli 120955 [24] = assay: MBC (minimum bactericidal concentration)
B. cenocepacia K56-2 [25] = assay: MIC in 50% human serum; assay type: cell-based, Burkholderia cenocepacia
[26] = test system: Stenotrophomonas maltophilia DH57; assay: MBC (minimum bactericidal concentration)
[27] = test system: Escherichia vulneris CEP511; assay type: cell-based
[28] = test system: Staphylococcus aureus ATCC 27700; assay: MBC (minimum bactericidal concentration)
[29] = test system: Klebsiella pneumoniae 120310; assay type: cell-based
[30] = test system: B. cenocepacia K56-2 persister cells; assay: Time kill of persister cells generated with ciprofloxacin; assay type: cell-based, Burkholderia cenocepacia
[31] = test system: Stenotrophomonas maltophilia K279a; assay: MBC (minimum bactericidal concentration); assay type: cell-based
[32] = test system: Stenotrophomonas maltophilia K279a; assay type: cell-based

## CC(=O)OC[C@H]1O[C@@H]([S-])[C@H](OC(C)=O)[C@@H](OC(C)=O)[C@@H]1OC(C)=O.CCP(CC)CC.[Au+] [Auranofin]
B. lata BCC6
  MIC: 128 µg/mL
[1]
  MIC: 1 µg/mL
B. contaminans FFH-4004
  MIC: >128 µg/mL
B. pseudomallei
  MIC in B. pseudomallei: 64 µg/mL
[2]
  MIC: 0.5 µg/mL
B. contaminans MF16
  MIC: 128 µg/mL
Members of the Bcc
  MICs against members of the Bcc: ≥ 128 µg/mL
B. cenocepacia K56-2 [3]
  MIC: >128 µg/mL
B. pseudomallei 1710b
  MIC: 64 µg/mL
B. multivorans ATCC17616
  MIC: 128 µg/mL
B. dolosa CEP021
  MIC: >128 µg/mL
[4]
  MIC: 128 µg/mL
B. ubonensis LMG 20358
  MIC: >128 µg/mL
B. pseudomallei MSHR465a
  MIC: 64 µg/mL
B. cenocepacia 140485
  MIC: 128 µg/mL
[5]
  MIC: 64 µg/mL
[6]
  MIC: 0.25 µg/mL
Gram-negative bacteria
  MICs against Gram-negative bacteria: > 16 mg/L
B. mallei
  MICs against B. mallei: 0.25 to 1 µg/mL

## CC(O)C[S][Au-][P+](C)(C)C (stereo not drawn) [MS-40S]
B. lata BCC6
  MIC: 8 µg/mL
[7]
  MBC: 8 µg/mL
[1]
  MIC: 0.25 µg/mL
B. contaminans FFH-4004
  MIC: 16 µg/mL
[8]
  MIC: 16 µg/mL
Escherichia coli 120955 [9]
  MIC: 4 µg/mL
[2]
  MIC: 0.12 µg/mL
C. elegans DH26; 4 μg/mL
  Percent survival of C. elegans: 100%
C. elegans DH26; 8 μg/mL
  Percent survival of C. elegans: 100%
C. elegans DH26; 16 μg/mL
  Percent survival of C. elegans: 100%
C. elegans DH26; 32 μg/mL
  Percent survival of C. elegans: 100%
C. elegans DH26; 64 μg/mL
  Percent survival of C. elegans: 100%
C. elegans DH26; 128 μg/mL
  Percent survival of C. elegans: 97.6%
C. elegans DH26; 256 μg/mL
  Percent survival of C. elegans: 85.7%
C. elegans DH26; highest concentration with 100 percent survival divided by the compound's MIC
  Survival100/MIC Ratio: 8
[10]
  MIC: 2 µg/mL
B. contaminans MF16
  MIC: 8 µg/mL
B. cenocepacia K56-2 [11]
  in vivo antibiotic activity: did not observe in vivo antibiotic activity
[12]; 4× MIC, exponential phase
  reduction of the culture in time kill: approximately three
[12]; time kill, 1×, 2×, 4× MIC (DOX 4× MIC), 6 h
  killing of stationary (non-replicating) phase cells: bactericidal
[12]; time kill, 1×, 2×, 4× MIC, 6 h
  killing of exponential (replicating) phase cells: bactericidal
[13]
  MBC: 1 µg/mL
[14]
  MBC: 32 µg/mL
[15]
  MBC: >32 * μg/mL
B. cenocepacia K56-2 [3]
  MIC: 8 µg/mL
[16]
  MBC: 4 µg/mL
[17]
  MBC: 8 µg/mL
B. pseudomallei 1710b
  MIC: 4 µg/mL
B. multivorans ATCC17616
  MIC: 16 µg/mL
[18]
  MIC: 0.5 µg/mL
B. dolosa CEP021
  MIC: 32 µg/mL
[4]
  MIC: 16 µg/mL
B. ubonensis LMG 20358
  MIC: 16 µg/mL
[19]; 1.0 mg/kg, 24 h
  Galleria Survival: 96.7%
[19]; 1.0 mg/kg, 48 h
  Galleria Survival: 86.7%
[19]; 1.0 mg/kg, 72 h
  Galleria Survival: 86.7%
[19]; 2.0 mg/kg, 24 h
  Galleria Survival: 83.3%
[19]; 2.0 mg/kg, 48 h
  Galleria Survival: 83.3%
[19]; 2.0 mg/kg, 72 h
  Galleria Survival: 83.3%
[19]; 5.0 mg/kg, 24 h
  Galleria Survival: 93.3%
[19]; 5.0 mg/kg, 48 h
  Galleria Survival: 86.7%
[19]; 5.0 mg/kg, 72 h
  Galleria Survival: 86.7%
[19]; 10 mg/kg
  percent survival of Galleria larvae: ≥ 80%
[19]; 10.0 mg/kg, 24 h
  Galleria Survival: 90.0%
[19]; 10.0 mg/kg, 48 h
  Galleria Survival: 76.7%
[19]; 10.0 mg/kg, 72 h
  Galleria Survival: 76.7%
B. cenocepacia K56-2 [20]
  in vivo antibiotic activity: did not observe in vivo antibiotic activity
B. pseudomallei MSHR465a
  MIC: 4 µg/mL
[21]
  MIC: 2 µg/mL
B. cenocepacia K56-2 [22]; 5× MIC
  persister frequency (percent survival): very low persister frequency
B. cenocepacia K56-2 [22]; 10× MIC
  persister frequency (percent survival): no persisters
B. cenocepacia 140485
  MIC: 16 µg/mL
[5]
  MIC: 2 µg/mL
[23]
  MIC: 0.25 µg/mL
Escherichia coli 120955 [24]
  MBC: 64 µg/mL
B. cenocepacia K56-2 [25]
  MIC in the presence of 50% human serum: 128 µg/mL
[6]
  MIC: 0.12 µg/mL
[26]
  MBC: 8 µg/mL
[27]
  MIC: 4 µg/mL
[28]
  MBC: 2 µg/mL
[29]
  MIC: 4 µg/mL
[30]; enriched persister population
  further reduction of ciprofloxacin-generated persister population: 1–2 log10 CFU/mL
[30]; in PBS, 3 h, MS-40S/MS-40 2× and 4× MIC, ciprofloxacin 5× MIC
  killing of ciprofloxacin-generated persister cells: killed to a concentration below/close to the limit of detection
[31]
  MBC: 8 µg/mL
[32]
  MIC: 2 µg/mL
